US8846675B2, “N-linked heterocyclic receptor agonists for the treatment of diabetes and metabolic disorders” (Cymabay Therapeutics, Inc., priority 2007, dated 2014)

What follows are compounds tested against T1, IC-GPCR2 (Homo sapiens, UniProt Q8TDV5) (assay: Stimulation of cAMP in CHO cell line stably expressing IC-GPCR2 (HTRF cAMP dynamic kit)). Settings: 3 μM compound; relative to maximal activity of 5-Ethyl-2-{4-[4-(4-tetrazol-1-yl-phenoxymethyl)-thiazol-2-yl]-piperidin-1-yl}-pyrimidine (=100%); IC-GPCR2 stably expressing CHO cells, 30 minutes.
T1 construct: expressed in transfected cells
T1 sequence (Q8TDV5 1-335 S309L): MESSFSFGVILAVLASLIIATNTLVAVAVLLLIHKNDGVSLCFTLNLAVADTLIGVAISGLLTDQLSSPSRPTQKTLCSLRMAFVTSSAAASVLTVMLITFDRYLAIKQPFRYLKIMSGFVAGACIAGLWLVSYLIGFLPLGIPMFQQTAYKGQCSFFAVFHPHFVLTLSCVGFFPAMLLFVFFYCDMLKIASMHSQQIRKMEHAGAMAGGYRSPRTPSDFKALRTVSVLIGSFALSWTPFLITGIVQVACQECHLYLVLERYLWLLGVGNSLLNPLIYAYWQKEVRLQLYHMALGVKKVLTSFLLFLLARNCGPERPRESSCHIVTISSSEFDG
Format: cell-based
Experimental: This assay was developed using a stable cell line expressing IC-GPCR-2, generated as follows. IC-GPCR2 (Seq. ID No. 1) was cloned into Gateway pDEST 40vector (Invitrogen), using the Gateway cloning system (invitrogen) according to the manufacturers instructions. A stable cell line was generated by transfecting a 10 cm plate of CHO cells (source) with 8 ug of this construct using Transit-CHO transfection kit (Mirus). CHO cells were plated the day prior to transfection at a density of 3,000,000 cells/plate. Clones were selected using the antibiotic G418 at 500 ug/ml. 23 clones were picked and assayed for the expression of the receptor by measuring changes in intracellular cAMP levels in response to an IC-GPCR2 agonist (Arena 51).
To measure cAMP activity in response to IC-GPCR2 agonist, the clones were plated in 96 well plates at 17500 cells per well. On the day after plating, cells were incubated with the IC-CPCR2 agonist at […] for 30 minutes in Ham's F12 Media (Gibco) with 0.04% DMSO. cAMP was measured using the cAMP dynamic kit from C is Bio (Bedford, Mass.) according to the manufacturers instructions. Briefly, cells were lysed, and cAMP levels determined by competitive immunoassay using D2 labeled cAMP, and europium cryptate tagged anti cAMP antibody. When in close proximity, the D2 and europium cryptate undergo fluorescence resonance energy transfer (FRET), which is measured as a fluorescence ratio (665 nm/620 nm). Unlabelled cAMP in the cell lysatc competed with the D2 labeled cAMP for the europium crypate labeled antibody. The resulting decrease in FRET signal corresponded to intracellular cAMP levels. Fluorescence was read on a BMG Labtech PHERAstar, software version 1.50.
The clone with the greatest response to IC-GPCR2 agonist was selected for the screening assay.
Compounds were dissolved in 100% DMSO to a concentration of […] to provide stock solutions. To determine activity against IC-GPCR2, compounds were incubated with IC-GPCR2 stably expressing cells (described above), at 6-8 concentrations ranging from 0.00003 to 10 micromolar, in 96 well plates, in 50 ul of Hams F12 media for 30 minutes. Cells were plated at 17500 cells per well 1 day before running the assay. All compounds were also screened against the parental CHO cells. cAMP was measured using the cAMP dynamic kit from Cis Bio (Bedford, Mass.), according to the manufacturer's instructions. Briefly, cells were lysed and cAMP levels determined by competitive immunoassay using D2 labeled cAMP, and europium cryptate tagged anti cAMP antibody. When in close proximity, the D2 and europium cryptate undergo fluorescence resonance energy transfer (FRET), which is measured as a fluorescence ratio (665 nm/620 nm). Unlabelled cAMP in the cell lysate competed with the D2 labeled cAMP for the europium crypate labeled antibody. The resulting decrease in FRET signal corresponded to intracellular cAMP levels
To determine percent activity for a tested compound, the FRET signal value obtained at a particular concentration are compared to the Maximal FRET signal value obtained for 5-Ethyl-2-{4-[4-(4-tetrazol-1-yl-phenoxymethyl)-thiazol-2-yl]-piperidin-1-yl}-pyrimidine. The maximal activity of 5-Ethyl-2-{4-[4-(4-tetrazol-1-yl-phenoxymethyl)-thiazol-2-yl]-piperidin-1-yl}-pyrimidine is designated as 100% activity. Typically, the concentration of 5-Ethyl-2-{4-[4-(4-tetrazol-1-yl-phenoxymethyl)-thiazol-2-yl]-piperidin-1-yl}-pyrimidine in the assay was approximately 0.1 μM. The synthesis of 5-Ethyl-2-{4-[4-(4-tetrazol-1-yl-phenoxymethyl)-thiazol-2-yl]-piperidin-1-yl}-pyrimidine is disclosed in co-owned pending U.S. patent application Ser. No. 11/964,461, herein incorporated by reference. Activities of compounds that were tested are shown in Table 1 below and are expressed as % activity at 3 μM compound compared to the maximal activity of 5-Ethyl-2-{4-[4-(4-tetrazol-1-yl-phenoxymethyl)-thiazol-2-yl]-piperidin-1-yl}-pyrimidine at 3 μM.

| Compound | % activity at 3 μM |
| --- | --- |
| CCOC(=O)CCCc1cnc(N2CCC(n3ncc(COc4ccc(-n5cnnn5)nc4)n3)CC2)nc1 [Example 58, Ethyl 4-(2-(4-(4-((6-(1H-tetrazol-1-yl)pyridin-3-yloxy)methyl)-2H-1,2,3-triazol-2-yl)piperidin-1-yl)pyrimidin-5-yl)butanoate] | 79.55% |
| CCOC(=O)c1cnc(N2CCC(n3ncc(COc4ccc(-n5cnnn5)nc4)n3)CC2)nc1 [Example 60] | 27.86% |
| O=C(c1cnc(N2CCC(n3ncc(COc4ccc(-n5cnnn5)nc4)n3)CC2)nc1)N1CCOCC1 [Example 61] | 43.59% |
| O=C(c1ncc(Br)cn1)N1CCC(n2ncc(COc3ccc(-n4cnnn4)nc3)n2)CC1 [Example 62, (4-(4-((6-(1H-tetrazol-1-yl)pyridin-3-yloxy)methyl)-2H-1,2,3-triazol-2-yl)piperidin-1-yl)(5-bromopyrimidin-2-yl)methanone] | 32.06% |
| Cc1nc(-n2cncn2)ccc1OCc1cnn(C2CCN(c3ncc(C(F)(F)F)cn3)CC2)n1 [Example 64, 2-(4-(4-((2-Methyl-6-(1H-1,2,4-triazol-1-yl)pyridin-3-yloxy)methyl)-2H-1,2,3-triazol-2-yl)piperidin-1-yl)-5-(trifluoromethyl)pyrimidine] | 66.18% |
| CCc1cnc(N2CCC(n3ncc(COc4ccc(-n5cncn5)nc4C)n3)CC2)nc1 [Example 65, 5-Ethyl-2-(4-(4-((2-methyl-6-(1H-1,2,4-triazol-1-yl)pyridin-3-yloxy)methyl)-2H-1,2,3-triazol-2-yl)piperidin-1-yl)pyrimidine] | 70.03% |
| CCc1cnc(N2CCC(n3cc(COc4ccc(-n5cnnn5)cc4F)c(C(F)(F)F)n3)CC2)nc1 [Example 66, 5-Ethyl-2-(4-(4-((2-fluoro-4-(1H-tetrazol-1-yl)phenoxy)methyl)-3-(trifluoromethyl)-1H-pyrazol-1-yl)piperidin-1-yl)pyrimidine] | 80.00% |
| CCc1cnc(N2CCC(n3cc(COc4ccc(S(C)(=O)=O)cc4F)c(C(F)(F)F)n3)CC2)nc1 [Example 67, 5-Ethyl-2-(4-(4-((2-fluoro-4-(methylsulfonyl)phenoxy)methyl)-3-(trifluoromethyl)-1H-pyrazol-1-yl)piperidin-1-yl)pyrimidine] | 57.87% |
| CCc1cnc(N2CCC(n3ncc(COc4ccc(-n5cnnn5)cc4F)c3C(F)(F)F)CC2)nc1 [Example 68, 5-Ethyl-2-(4-(4-((2-fluoro-4-(1H-tetrazol-1-yl)phenoxy)methyl)-5-(trifluoromethyl)-1H-pyrazol-1-yl)piperidin-1-yl)pyrimidine] | 74.11% |
| CC1CC(n2ncc(COc3ccc(-n4cnnn4)cc3F)n2)CCN1c1ncc(Cl)cn1 (stereo not drawn) [Example 69, 5-Chloro-2-(4-(4-((2-fluoro-4-(1H-tetrazol-1-yl)phenoxy)methyl)-2H-1,2,3-triazol-2-yl)-2-methylpiperidin-1-yl)pyrimidine] | 55.22% |
| CC1CC(n2ncc(COc3ccc(-n4cnnn4)cc3F)n2)CCN1c1ncc(C(F)(F)F)cn1 (stereo not drawn) [Example 70, 2-(4-(4-((2-Fluoro-4-(1H-tetrazol-1-yl)phenoxy)methyl)-2H-1,2,3-triazol-2-yl)-2-methylpiperidin-1-yl)-5-(trifluoromethyl)pyrimidine] | 66.77% |
| FC(F)(F)c1cnc(N2C3CCC2CC(n2ncc(COc4ccc(-n5cnnn5)nc4)n2)C3)nc1 (stereo not drawn) [Example 71, exo-3-(4-((6-(1H-Tetrazol-1-yl)pyridin-3-yloxy)methyl)-2H-1,2,3-triazol-2-yl)-8-(5-(trifluoromethyl)pyrimidin-2-yl)-8-azabicyclo[3.2.1]octane] | 70.78% |
| C=CCOC(=O)N1CCC(n2ncc(COc3ccc(-n4cnnn4)cc3F)n2)CC1 [Example 76, Allyl 4-(4-((2-fluoro-4-(1H-tetrazol-1-yl)phenoxy)methyl)-2H-1,2,3-triazol-2-yl)piperidine-1-carboxylate] | 56.39% |
| C=CCOC(=O)N1CCC(n2ncc(COc3ccc(-n4cnnn4)nc3)n2)CC1 [Example 77, Allyl 4-(4-((6-(1H-tetrazol-1-yl)pyridin-3-yloxy)methyl)-2H-1,2,3-triazol-2-yl)piperidine-1-carboxylate] | 69.86% |
| CCCCCc1cnc(N2CCC(n3ncc(COc4ccc(-n5cnnn5)nc4)n3)CC2)nc1 [Example 78, 2-(4-(4-((6-(1H-tetrazol-1-yl)pyridin-3-yloxy)methyl)-2H-1,2,3-triazol-2-yl)piperidin-1-yl)-5-pentylpyrimidine] | 57.13% |
| COc1ccc(-c2cnc(N3CCC(n4ncc(COc5ccc(-n6cnnn6)nc5)n4)CC3)nc2)cc1 [Example 80, 2-(4-(4-((6-(1H-tetrazol-1-yl)pyridin-3-yloxy)methyl)-2H-1,2,3-triazol-2-yl)piperidin-1-yl)-5-(4-methoxyphenyl)pyrimidine] | 77.53% |
| CCOC(=O)c1cnc(N2CCC(n3ncc(COc4ccc(-n5cnnn5)nc4)n3)CC2)s1 [Example 81, Ethyl 2-(4-(4-((6-(1H-tetrazol-1-yl)pyridin-3-yloxy)methyl)-2H-1,2,3-triazol-2-yl)piperidin-1-yl)thiazole-5-carboxylate] | 32.98% |

Same assay, conditions: 3 μM compound; relative to maximal activity of 5-Ethyl-2-{4-[4-(4-tetrazol-1-yl-phenoxymethyl)-thiazol-2-yl]-piperidin-1-yl}-pyrimidine (=100%); IC-GPCR2 stably expressing CHO cells, 30 minutes; 3 µM

| Compound | % activity at 3 μM |
| --- | --- |
| CC(C)(C)OC(=O)N1C2CCC1CC(n1ncc(COc3ccc(-n4cnnn4)nc3)n1)C2 (stereo not drawn) [Example 72, endo-tert-Butyl 3-(4-((6-(1H-tetrazol-1-yl)pyridin-3-yloxy)methyl)-2H-1,2,3-triazol-2-yl)-8-azabicyclo[3.2.1]octane-8-carboxylate] | 60.55% |
| CC(C)(C)OC(=O)N1C2CCC1CC(n1ncc(COc3ccc(-n4cnnn4)nc3)n1)C2 (stereo not drawn) [Example 73, exo-tert-Butyl 3-(4-((6-(1H-tetrazol-1-yl)pyridin-3-yloxy)methyl)-2H-1,2,3-triazol-2-yl)-8-azabicyclo[3.2.1]octane-8-carboxylate] | 84.07% |
| Fc1cnc(N2C3CCC2CC(n2ncc(COc4ccc(-n5cnnn5)nc4)n2)C3)nc1 (stereo not drawn) [Example 74, endo-3-(4-((6-(1H-tetrazol-1-yl)pyridin-3-yloxy)methyl)-2H-1,2,3-triazol-2-yl)-8-(5-fluoropyrimidin-2-yl)-8-azabicyclo[3.2.1]octane] | 61.88% |
| Fc1cnc(N2C3CCC2CC(n2ncc(COc4ccc(-n5cnnn5)nc4)n2)C3)nc1 (stereo not drawn) [Example 75, exo-3-(4-((6-(1H-Tetrazol-1-yl)pyridin-3-yloxy)methyl)-2H-1,2,3-triazol-2-yl)-8-(5-fluoropyrimidin-2-yl)-8-azabicyclo[3.2.1]octane] | 47.94% |
